Laboratory results as given in PubChem BioAssay AID2305 (GlaxoSmithKline (GSK), 2010).

What follows are compounds tested on P. falciparum 3D7 growth, pLDH absorbance (assay: blood-stage malaria parasite growth potency – strain 3D7, dose response (AID 2305)).

SMILES	IC50
Fc1cccc(C=NNc2ccnc3ccccc23)c1	840 nM
COc1ccc2nccc([C@@H](O)CN3CCC(NCc4ccc5c(c4)oc(=S)n5C)CC3)c2c1	190 nM
CS(=O)(=O)c1ccc(CNCc2cccc(-c3cccc(-c4nc5ccc(F)cc5[nH]4)c3)c2)cc1	560 nM
O=c1cc(NCCCNCc2ccc(C(F)(F)F)cc2F)[nH]c2ccccc12	960 nM
O=S(=O)(c1c(Cl)cc(Cl)cc1Cl)N1CCCCC(c2ccc(C(F)(F)F)cc2)=N1	100 nM
C/C(=C\C(=O)NC1CC1)c1ccccc1OCc1ccccc1	500 nM
CCOC(=O)N1CCN(CCCCCNc2cc(C)nc(/N=C(\N)Nc3ccc(Cl)cc3)n2)CC1	150 nM
COc1ccc(CNCc2ccc(-c3ccc(-c4nc5ccc(C(F)(F)F)cc5[nH]4)cc3)cc2)cc1	130 nM
Fc1ccc2[nH]cc(CCN3CCC(CNCc4ccccc4)CC3)c2c1	30 nM
Oc1ccc(-c2nc(-c3ccc4oc5ccc(-c6[nH]c(-c7ccc(O)cc7)nc6-c6ccccc6)cc5c4c3)c(-c3ccccc3)[nH]2)cc1	1110 nM
CN1CCN(c2cc3c(Nc4ccc5c(cnn5Cc5ccccc5)c4)ncnc3cn2)CC1	1130 nM
CN(C)CCCN1CCN(Cc2ccc(-c3ccc(-c4nc5ccccc5[nH]4)s3)cc2)CC1	820 nM
Cn1cnc(CCNC(=O)c2ccc(-c3cccc(-c4nc5ccc(C(F)(F)F)cc5[nH]4)c3)cc2)c1	730 nM
COc1cc(Cc2cnc(N)nc2N)c2c(c1OC)OC(C)C=C2 (stereo not given)	1250 nM
CC(=O)N(C)c1cccc(C(=O)Nc2cccc(-c3cccc(-c4nc5c(C)cccc5[nH]4)c3)c2)c1	620 nM
NC1=NC(CCc2ccccc2)N(c2ccccc2)C(N)=N1 (stereo not given)	80 nM
Brc1cc(CNCCCNc2nc3ccccc3[nH]2)sc1Br	220 nM
O=C(CCc1cccnc1)Nc1cccc(-c2ccc(-c3nc4ccc(C(F)(F)F)cc4[nH]3)cc2)c1	870 nM
O=C(Nc1ccc(Cn2ncc(N3CCCNCC3)c(Cl)c2=O)cc1)Nc1cc(Cl)cc(Cl)c1	870 nM
COCc1ccccc1C(=O)NCCOc1cc(C)cc(C)c1	350 nM
Cc1ccc(N2C(=O)C3C(C2=O)[C@]2(c4ccccc4)C(=O)[C@@]3(c3ccccc3)C(c3ccccc3)=C2c2ccccc2)cc1 (stereo not given in full)	870 nM
CN(C(=O)c1snnc1-c1ccccc1)C1CCN(CCCCCNC(=O)/C=C/c2ccc(Cl)c(Cl)c2)CC1	190 nM
Cc1cccc2[nH]c(-c3ccc(-c4ccc(CNCc5cnn(-c6ccccc6)n5)cc4)cc3)nc12	430 nM
COc1cc(NC(=O)/C=C/c2cccc3cc[nH]c23)ccc1OCCN(C(C)C)C(C)C	270 nM
Cc1cc(F)ccc1-c1nc(NCCCNCCc2ccccc2)nc2c1ccc(=O)n2-c1c(F)cccc1F	190 nM

SMILES	IC50
c1ccc(CNCc2cccc(-c3ccc(-c4nc5ccccc5[nH]4)s3)c2)cc1	820 nM
CCNc1cc(C)nc(Nc2ccc(NC(=O)c3cccs3)cc2)n1	1020 nM
CNC(=O)c1cc(NCCCNCc2ccc(Cl)c(C(F)(F)F)c2)nc2ccccc12	930 nM
CN1CCN(c2cc3c(cc2Cl)CCN3C(=O)Cc2ccc(Cl)c(NC(=O)Nc3cccc([N+](=O)[O-])c3)c2)CC1	720 nM
O=S(=O)(NCCN1CCCC1)c1ccc(-c2ccc(CNCc3ccccc3)cc2)cc1F	1290 nM
Cc1cccc2[nH]c(-c3ccc(-c4ccc(CN5CCC(CCN6CCCCC6)CC5)cc4)cc3)nc12	140 nM
O=C(Nc1cccnc1)c1cc(C(=O)Nc2cccnc2)cc([N+](=O)[O-])c1	1120 nM
O=C(Cc1ccc(NC(=O)c2ccc(O)c(-c3ccc(Cl)c(Cl)c3)c2)cc1)NCCc1ccc(Cl)c(Cl)c1	720 nM
CCOC(=O)c1cc2c(CCN3C(=O)c4ccccc4C3=O)cn(C)c2cc1-c1ccncc1	580 nM
CC(=O)Nc1cc(C(=O)Nc2cccc(-c3cccc(-c4nc5c(C)cccc5[nH]4)c3)c2)ccc1C	330 nM
O=C(Nc1ccc(OC2CCN(Cc3ccccc3)C2)c(Cl)c1)c1cccs1 (stereo not given)	390 nM
CCCN1CCN(CC(O)CNC(=O)Nc2ccc(Cl)cc2)CC1 (stereo not given)	100 nM
COCCn1c(SC(C)C(=O)Nc2cc(C(F)(F)F)ccc2Cl)nc2ccccc2c1=O (stereo not given)	630 nM
c1ccc(Oc2ccc(Nc3ccnc4cc(-c5csc(CN6CCCCC6)n5)ccc34)cc2)nc1	580 nM
CC1CCCC(NCc2c(O)ccc3ccccc23)C1 (stereo not given)	930 nM
CN(Cc1cccc(O)c1)C1CCN(c2cc(NC(=O)c3ccc(F)cc3)ccn2)C1 (stereo not given)	1150 nM
O=C(c1ccc(-c2ccc(-c3nc4ccc(C(F)(F)F)cc4[nH]3)s2)cc1)N1CCN(CCc2ccccc2)CC1	590 nM
CCN(CC)CCN(Cc1ccc(-c2ccc(C(F)(F)F)cc2)cc1)C(=O)Cn1c(CCc2cc(F)ccc2F)nc(=O)c2ccccc21	830 nM
O=C(Nc1ccc(Cl)cc1)N[C@H]1CCN(CCCCCNC(=O)[C@@H]2C[C@H]2c2ccc(Cl)c(Cl)c2)C1	870 nM
COc1cc(NCC2(CNCc3cn(Cc4ccccc4)c4ccccc34)CCCCC2)nc2ccccc12	950 nM
Oc1ccccc1CN1CCC(CCOC(c2ccccc2)c2ccc(Cl)cc2)CC1 (stereo not given)	740 nM
CCN(CC)CCCNc1c2ccccc2nc2ccccc12	750 nM
C=CCN1C(=O)CN(S(=O)(=O)c2ccc(-n3nc(C)cc3C)cc2)C1=S	940 nM
CCOC(=O)C(NC(=O)Cc1ccccc1)C(C)C (stereo not given)	290 nM
O=C(c1cc(C(=O)Nc2ccccc2)c(=O)n(-c2ccccc2)c1)c1cc(Cl)ccc1O	390 nM
